Assay results published in US9586949B2, “Aza-heteroaryl compounds as PI3K-gamma inhibitors” (Incyte Corporation, priority 2015, dated 2017).
Where a name gives a salt, the structure may show the parent alone.

Experiments:
[1] = target: PI3Kγ (p110γ) Recombinant Human Protein (Homo sapiens (Human), UniProt P48736); test: PI3K-γ Scintillation Proximity Assay; format: biochemical; conditions: 20 μM PIP2, 2 μM ATP, 13 nM PI3Kγ, 120 min; read-out: PI3K-gamma SPA IC50
Procedure: [γ-^33P]ATP (10 mCi/mL) and Wheat Germ Agglutinin (WGA) YSi SPA Scintillation Beads was purchased from Perkin-Elmer (Waltham, Mass.). […] PI3Kγ (p110γ) Recombinant Human Protein was purchased from Life technology (Grand Island, N.Y.). ATP, MgCl2, DTT, EDTA, MOPS and CHAPS were purchased from Sigma-Aldrich (St. Louis, Mo.).
The kinase reaction was conducted in polystyrene 384-well Greiner Bio-one white plate from Thermo Fisher Scientific in a final volume of 25 μL. Inhibitors were first diluted serially in DMSO and added to the plate wells before the addition of other reaction components. The final concentration of DMSO in the assay was 2%. The PI3Kγ assay was carried out at room temperature in 20 mM MOPS, pH 6.7, 10 mM MgCl2, 5 mM DTT and CHAPS 0.03%. Reactions were initiated by the addition of ATP, the final reaction mixture consisted of 20 μM PIP2, 2 μM ATP, 0.5 μCi [γ-^33P] […] The final concentration of SPA beads is 1.0 mg/mL. After the plate sealing, plates were shaken overnight at room temperature and centrifuged at 1500 rpm for 10 min, the radioactivity of the product was determined by scintillation counting on Topcount (Perkin-Elmer). IC50 determination was performed by fitting the curve of percent of the solvent control activity versus the log of the inhibitor concentration using the GraphPad Prism 6.0 software.

[2] = target: PI3Kδ (p110δ/p85α) Recombinant Human Protein (Homo sapiens (Human), UniProt O00329); test: PI3Kδ Scintillation Proximity Assay; format: biochemical; conditions: 20 μM PIP2, 2 μM ATP, 3.4 nM PI3Kδ, 120 min; read-out: PI3K-delta SPA IC50
Source text: [γ-^33P]ATP (10 mCi/mL) and Wheat Germ Agglutinin (WGA) YSi SPA Scintillation Beads was purchased from Perkin-Elmer (Waltham, Mass.). Lipid kinase substrate, D-myo-Phosphatidylinositol 4,5-bisphosphate (PtdIns(4,5)P2)D (+)-sn-1,2-di-O-octanoylglyceryl, 3-O-phospho linked (PIP2), CAS 204858-53-7, was purchased from Echelon Biosciences (Salt Lake City, Utah). PI3Kδ (p110δ/p85α) Recombinant Human Protein was purchased from Eurofins (St Charles, Mo.). ATP, MgCl2, DTT, EDTA, MOPS and CHAPS were purchased from Sigma-Aldrich (St. Louis, Mo.).
The kinase reaction was conducted in polystyrene 384-well Greiner Bio-one white plate from Thermo Fisher Scientific in a final volume of 25 μL. Inhibitors were first diluted serially in DMSO and added to the plate wells before the addition of other reaction components. The final concentration of DMSO in the assay was 2%. The PI3Kδ assay was carried out at room temperature in 20 mM MOPS, pH 6.7, 10 mM MgCl2, 5 mM DTT and CHAPS 0.03%. Reactions were initiated by the addition of ATP, the final reaction mixture consisted of 20 μM PIP2, 2 μM ATP, 0.5 μCi [γ-^33P] ATP, 3.4 nM PI3Kδ. Reactions were incubated for 120 min and terminated by the addition of 40 μL SPA beads suspended in quench buffer: 163 mM potassium phosphate pH 7.8, 20% glycerol, 25 mM EDTA. The final concentration of SPA beads is 1.0 mg/mL. After the plate sealing, plates were shaken overnight at room temperature and centrifuged at 1500 rpm for 10 min, the radioactivity of the product was determined by scintillation counting on Topcount (Perkin-Elmer). IC50 determination was performed by fitting the curve of percent of the solvent control activity versus the log of the inhibitor concentration using the GraphPad Prism 6.0 software.

Sequence of PI3Kγ (p110γ) Recombinant Human Protein (P48736 whole entry): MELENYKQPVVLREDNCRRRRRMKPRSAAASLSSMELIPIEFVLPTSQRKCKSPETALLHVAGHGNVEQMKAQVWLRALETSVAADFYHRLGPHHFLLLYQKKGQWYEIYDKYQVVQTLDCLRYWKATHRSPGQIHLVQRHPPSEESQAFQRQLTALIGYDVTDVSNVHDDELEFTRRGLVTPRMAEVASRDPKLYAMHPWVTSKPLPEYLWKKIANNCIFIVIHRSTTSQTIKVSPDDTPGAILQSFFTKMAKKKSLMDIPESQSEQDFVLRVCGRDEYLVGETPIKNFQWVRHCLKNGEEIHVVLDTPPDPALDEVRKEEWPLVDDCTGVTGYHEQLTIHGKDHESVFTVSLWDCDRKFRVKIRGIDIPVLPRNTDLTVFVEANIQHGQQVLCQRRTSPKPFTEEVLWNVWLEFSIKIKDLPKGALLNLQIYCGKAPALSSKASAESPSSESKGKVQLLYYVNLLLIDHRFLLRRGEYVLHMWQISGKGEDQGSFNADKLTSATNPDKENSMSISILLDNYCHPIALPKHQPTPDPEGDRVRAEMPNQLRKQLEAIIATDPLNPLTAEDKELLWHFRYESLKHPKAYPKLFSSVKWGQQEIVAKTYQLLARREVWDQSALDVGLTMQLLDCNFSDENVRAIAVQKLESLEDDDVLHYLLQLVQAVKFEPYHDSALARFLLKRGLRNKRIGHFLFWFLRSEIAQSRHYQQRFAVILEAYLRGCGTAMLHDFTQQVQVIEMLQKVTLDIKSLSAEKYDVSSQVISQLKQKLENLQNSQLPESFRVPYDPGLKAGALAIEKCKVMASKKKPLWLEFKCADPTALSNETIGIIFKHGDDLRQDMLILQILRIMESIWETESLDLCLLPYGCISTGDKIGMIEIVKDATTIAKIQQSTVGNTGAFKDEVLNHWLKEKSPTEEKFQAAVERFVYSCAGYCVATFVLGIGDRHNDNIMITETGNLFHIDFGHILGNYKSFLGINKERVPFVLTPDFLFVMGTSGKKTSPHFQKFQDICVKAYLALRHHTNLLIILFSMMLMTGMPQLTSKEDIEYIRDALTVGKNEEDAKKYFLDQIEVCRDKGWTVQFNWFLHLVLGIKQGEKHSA
Sequence of PI3Kδ (p110δ/p85α) Recombinant Human Protein (O00329 whole entry): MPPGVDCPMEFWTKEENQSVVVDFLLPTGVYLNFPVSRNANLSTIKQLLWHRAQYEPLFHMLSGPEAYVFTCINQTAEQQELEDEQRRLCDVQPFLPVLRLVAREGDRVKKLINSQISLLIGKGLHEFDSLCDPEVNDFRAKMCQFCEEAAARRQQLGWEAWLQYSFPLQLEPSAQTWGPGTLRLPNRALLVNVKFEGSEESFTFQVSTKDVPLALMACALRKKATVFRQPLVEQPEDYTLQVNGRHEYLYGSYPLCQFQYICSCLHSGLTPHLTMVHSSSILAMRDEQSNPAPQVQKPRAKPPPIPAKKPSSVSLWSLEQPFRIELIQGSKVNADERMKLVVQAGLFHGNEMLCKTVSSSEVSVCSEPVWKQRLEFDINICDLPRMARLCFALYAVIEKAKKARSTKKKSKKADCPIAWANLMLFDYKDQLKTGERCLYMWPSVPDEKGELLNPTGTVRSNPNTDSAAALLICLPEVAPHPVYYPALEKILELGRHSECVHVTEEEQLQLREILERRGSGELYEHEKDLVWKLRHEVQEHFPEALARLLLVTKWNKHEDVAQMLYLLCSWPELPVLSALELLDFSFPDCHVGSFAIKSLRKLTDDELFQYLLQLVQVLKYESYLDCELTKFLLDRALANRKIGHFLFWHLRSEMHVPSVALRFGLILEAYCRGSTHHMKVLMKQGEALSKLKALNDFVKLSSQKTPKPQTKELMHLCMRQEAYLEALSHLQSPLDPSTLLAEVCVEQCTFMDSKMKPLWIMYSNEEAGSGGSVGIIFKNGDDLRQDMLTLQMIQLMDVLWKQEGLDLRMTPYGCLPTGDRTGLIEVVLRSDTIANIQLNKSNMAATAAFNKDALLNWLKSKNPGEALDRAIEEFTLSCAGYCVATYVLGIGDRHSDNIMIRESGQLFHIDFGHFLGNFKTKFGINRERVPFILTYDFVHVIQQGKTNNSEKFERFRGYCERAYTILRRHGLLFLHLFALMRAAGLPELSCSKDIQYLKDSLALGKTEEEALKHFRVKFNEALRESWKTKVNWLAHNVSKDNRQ
Sequence of PI3Kδ (p110δ/p85α) Recombinant Human Protein (P27986 whole entry partner): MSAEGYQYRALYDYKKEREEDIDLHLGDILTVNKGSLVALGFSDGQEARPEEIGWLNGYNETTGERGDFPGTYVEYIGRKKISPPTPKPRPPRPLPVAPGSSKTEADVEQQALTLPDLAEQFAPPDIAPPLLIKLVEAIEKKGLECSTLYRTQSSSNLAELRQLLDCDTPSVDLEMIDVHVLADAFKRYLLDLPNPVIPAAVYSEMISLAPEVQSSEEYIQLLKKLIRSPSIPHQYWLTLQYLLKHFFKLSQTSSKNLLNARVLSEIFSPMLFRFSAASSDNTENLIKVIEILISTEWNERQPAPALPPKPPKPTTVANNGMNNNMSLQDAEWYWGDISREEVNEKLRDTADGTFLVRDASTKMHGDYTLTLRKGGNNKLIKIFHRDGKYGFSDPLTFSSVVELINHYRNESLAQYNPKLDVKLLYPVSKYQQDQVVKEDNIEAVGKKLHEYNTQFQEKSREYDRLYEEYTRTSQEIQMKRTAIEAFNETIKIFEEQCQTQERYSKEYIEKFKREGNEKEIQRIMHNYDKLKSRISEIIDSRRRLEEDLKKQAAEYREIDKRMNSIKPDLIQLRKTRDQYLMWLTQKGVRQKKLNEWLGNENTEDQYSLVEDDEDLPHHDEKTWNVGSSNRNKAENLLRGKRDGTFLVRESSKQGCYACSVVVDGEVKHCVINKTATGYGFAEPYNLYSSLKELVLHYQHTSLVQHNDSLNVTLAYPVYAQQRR

SMILES | IC50 [1] [nM] | IC50 [2] [nM]
Cc1ncc(-c2ccc3nc(-c4nc5ccccc5[nH]4)oc3c2)cc1NS(=O)(=O)CC(F)(F)F [Example 76, N-(5-(2-(1H-Benzo [d]imidazol-2-yl)benzo[d]oxazol-6-yl)-2-methylpyridin-3-yl)-2,2,2-trifluoro-ethanesulfonamide bis(trifluoroacetate)] | < 250 | < 250
OC(c1cncc(-c2ccc3nc(-c4ncc[nH]4)oc3c2)c1)C(F)(F)F (stereo not shown) [Example 61, 1-(5-(2-(1H-Imidazol-2-yl)benzo[d]oxazol-6-yl)pyridin-3-yl)-2,2,2-trifluoroethanol bis(trifluoroacetate)] | < 250 | < 250
CCS(=O)(=O)Nc1cc(-c2ccc3nc(-c4nc(C)c(C)[nH]4)oc3c2)cnc1OC [Example 65, N-(5-(2-(4,5-Dimethyl-1H-imidazol-2-yl)benzo[d]oxazol-6-yl)-2-methoxypyridin-3-yl)ethanesulfonamide bis(trifluoroacetate)] | < 250 | < 250
COc1cncc(-c2ccc3nc(-c4ncc[nH]4)oc3c2)c1 [Example 1, 2-(1H-Imidazol-2-yl)-6-(5-methoxypyridin-3-yl)benzo[d]oxazole trifluoroacetate] | < 1000 | < 5000
Cc1n[nH]c2ccc(-c3ccc4nc(-c5nc6ccccc6[nH]5)oc4c3)cc12 [Example 50, 2-(1H-Benzimidazol-2-yl)-6-(3-methyl-1H-indazol-5-yl)-1,3-benzoxazole] | < 250 | < 250
COc1cncc(-c2ccc3nc(-c4ccc[nH]4)oc3c2)c1 [Example 3, 6-(5-Methoxypyridin-3-yl)-2-(1H-pyrrol-2-yl)benzo[d]oxazole trifluoroacetate] | < 5000 | < 5000
O=S(=O)(c1cncc(-c2ccc3nc(-c4nc5ccccc5[nH]4)oc3c2)c1)N1CCOCC1 [Example 38, 2-(1H-Benzo[d]imidazol-2-yl)-6-(5-(morpholinosulfonyl)pyridin-3-yl)benzo[d]oxazole] | < 250 | ≥ 5000
CCS(=O)(=O)N(C)c1cncc(-c2ccc3nc(-c4nc5ccccc5[nH]4)oc3c2)c1 [Example 73, N-(5-(2-(1H-Benzo [d]imidazol-2-yl)benzo [d]oxazol-6-yl)pyridin-3-yl)-N-methylethanesulfonamide bis(trifluoroacetate)] | < 250 | < 5000
Cc1nc(-c2nc3ccc(-c4cncc(C(O)C(F)(F)F)c4)cc3o2)[nH]c1C (stereo not shown) [Example 67, 1-(5-(2-(4,5-Dimethyl-1H-imidazol-2-yl)benzo[d]oxazol-6-yl)pyridin-3-yl)-2,2,2-trifluoroethanol bis(trifluoroacetate)] | < 250 | < 250
FC(F)Oc1cncc(-c2ccc3nc(-c4nc5ccccc5[nH]4)oc3c2)c1 [Example 16, 2-(1H-Benzo[d]imidazol-2-yl)-6-(5-(difluoromethoxy)pyridin-3-yl)benzo[d]oxazole] | < 250 | < 1000
COc1cncc(-c2ccc3nc(-c4cc(C)n[nH]4)oc3c2)c1 [Example 46, 6-(5-Methoxypyridin-3-yl)-2-(3-methyl-1H-pyrazol-5-yl)benzo[d]oxazole] | > 5000 | ≥ 5000
O=S(=O)(Nc1cncc(-c2ccc3nc(-c4ncc[nH]4)oc3c2)c1)c1ccc(F)cc1 [Example 39, N-(5-(2-(1H-Imidazol-2-yl)benzo[d]oxazol-6-yl)pyridin-3-yl)-4-fluorobenzenesulfonamide] | < 250 | < 250
COc1cncc(-c2ccc3nc(-c4nc5cc(F)ccc5[nH]4)oc3c2)c1 [Example 10, 2-(5-Fluoro-1H-benzo[d]imidazol-2-yl)-6-(5-methoxypyridin-3-yl)benzo[d]oxazole] | < 1000 | ≥ 5000
CCS(=O)(=O)n1ncc2ccc(-c3ccc4nc(-c5nc6ccccc6[nH]5)oc4c3)cc21 [Example 52, 6-[1-(Ethylsulfonyl)-1H-indazol-6-yl]-2-(1H-benzimidazol-2-yl)-1,3-benzoxazole] | < 250 | < 250
COc1cncc(-c2ccc3nc(-c4cnc[nH]4)oc3c2)c1 [Example 2, 2-(1H-Imidazol-5-yl)-6-(5-methoxypyridin-3-yl)benzo[d]oxazole trifluoroacetate] | < 5000 | < 5000

Results, then the compound that gave them:

IC50 [1] [nM] | IC50 [2] [nM] | SMILES
< 1000 | ≥ 5000 | Fc1ncc(-c2ccc3nc(-c4nc5ccccc5[nH]4)oc3c2)cn1 [Example 70, 2-(1H-Benzo[d]imidazol-2-yl)-6-(2-fluoro-pyrimidin-5-yl)benzo[d] oxazole bis(trifluoroacetate)]
< 250 | < 5000 | CCS(=O)(=O)Nc1cc(-c2ccc3nc(-c4nc5ccccc5[nH]4)oc3c2)cc(F)c1OC [Example 80, N-(5-(2-(1H-Benzo [d]imidazol-2-yl)benzo[d]oxazol-6-yl)-3-fluoro-2-methoxyphenyl) ethanesulfonamide bis(trifluoroacetate)]
< 250 | ≥ 5000 | Fc1ccc(-c2ccc3nc(-c4nc5ccccc5[nH]4)oc3c2)cc1F [Example 51, 2-(1H-Benzimidazol-2-yl)-6-(3,4-difluorophenyl)-1,3-benzoxazole trifluoroacetate]
< 1000 | < 5000 | CC(C)Oc1cncc(-c2ccc3nc(-c4nc5ccccc5[nH]4)oc3c2)c1 [Example 15, 2-(1H-Benzo[d]imidazol-2-yl)-6-(5-isopropoxypyridin-3-yl)benzo[d]oxazole]
< 250 | < 250 | O=S(=O)(Nc1cncc(-c2ccc3nc(-c4nc5ccccc5[nH]4)oc3c2)c1)c1cccc(F)c1 [Example 19, N-(5-(2-(1H-Benzo[d]imidazol-2-yl)benzo[d]oxazol-6-yl)pyridin-3-yl)-3-fluorobenzenesulfonamide]
< 250 | < 250 | Cc1ncc(-c2ccc3nc(-c4nc5ccccc5[nH]4)oc3c2)cc1NS(=O)(=O)N(C)C [Example 22, N′-{5-[2-(1H-Benzimidazol-2-yl)-1,3-benzoxazol-6-yl]-2-methylpyridin-3-yl}-N,N-dimethylsulfamide]
< 250 | < 1000 | CN(C)S(=O)(=O)Nc1cncc(-c2ccc3nc(-c4nc5ccccc5[nH]4)oc3c2)c1 [Example 21, N′-{5-[2-(1H-Benzimidazol-2-yl)-1,3-benzoxazol-6-yl]-pyridin-3-yl}-N,N-dimethylsulfamide]
< 250 | < 250 | CN(C)S(=O)(=O)Nc1cc(-c2ccc3nc(-c4nc5ccccc5[nH]4)oc3c2)cnc1F [Example 23, N′-{5-[2-(1H-Benzimidazol-2-yl)-1,3-benzoxazol-6-yl]-2-fluoropyridin-3-yl}-N,N-dimethylsulfamide]
< 250 | ≥ 5000 | CCNS(=O)(=O)c1cncc(-c2ccc3nc(-c4nc5ccccc5[nH]4)oc3c2)c1 [Example 59, 5-[2-(1H-Benzimidazol-2-yl)-1,3-benzoxazol-6-yl]-N-ethylpyridine-3-sulfonamide bis(trifluoroacetate)]
< 250 | < 250 | O=S(=O)(Nc1cc(-c2ccc3nc(-c4nc5ccccc5[nH]4)oc3c2)cnc1F)c1ccc(F)cc1 [Example 30, N-(5-(2-(1H-Benzo[d]imidazol-2-yl)benzo[d]oxazol-6-yl)-2-fluoropyridin-3-yl)-4-fluorobenzenesulfonamide]
< 5000 | < 5000 | CCS(=O)(=O)Nc1cc(-c2ccc3nc(-c4nc5ccccc5[nH]4)oc3c2)ncc1F [Example 78, N-(2-(2-(1H-Benzo [d]imidazol-2-yl)benzo[d]oxazol-6-yl)-5-fluoropyridin-4-yl) ethanesulfonamide bis(trifluoroacetate)]
